Drawing on PubChem BioAssay (NCI), this text covers GI50 and TGI for seven molecules.

Some test systems named below: 786-0 renal; HS 578T breast; K-562 leukemia; LOX IMVI melanoma; M14 melanoma; MDA-MB-435; NCI-H460 lung; PC-3 prostate; U251 CNS; UACC-62 melanoma.
Holding throughout (assay): inhibition of tumour cell growth, NCI panel, 48 h

Molecules are shown by their SMILES.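 These data come from cells grown in 96-well plates and exposed to compound for 48 hours at five concentrations. GI50 marks 50% less growth. TGI is the concentration that stops growth completely.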

For `NS(=O)(=O)c1ccc(-c2cc3ccncc3cc2OCc2ccccc2)cc1`, the GI50 is over 19800 nM in the assay on 786-0 renal; 7040 nM with HS 578T breast; over 19600 nM in the assay on K-562 leukemia; over 22600 nM with LOX IMVI melanoma; over 25000 nM in the assay with M14 melanoma; over 25000 nM with MDA-MB-435. Further, the GI50 is 9770 nM in the assay on NCI-H460 lung, over 20500 nM in the assay with PC-3 prostate, over 21500 nM in the assay with U251 CNS and over 23700 nM with UACC-62 melanoma. Moreover, the TGI in the assay on 786-0 renal, in the assay on HS 578T breast, with K-562 leukemia, in the assay on LOX IMVI melanoma, with M14 melanoma and in the assay with MDA-MB-435 was over 25000 nM each time. Further, the TGI in the assay on NCI-H460 lung, in the assay with PC-3 prostate, in the assay with U251 CNS and with UACC-62 melanoma was over 25000 nM each time.
As to `Oc1cccc2ccc(N/N=C/c3cc(CN4CCOCC4)c(O)c4ncccc34)nc12`, the GI50 with 786-0 renal was 44.4 nM; in the assay with HS 578T breast, 47.9 nM; in the assay on K-562 leukemia, 15.2 nM; with LOX IMVI melanoma, 42.6 nM; in the assay on M14 melanoma, 39.2 nM; in the assay with MDA-MB-435 it was 16.5 nM. Also, the GI50 in the assay on NCI-H460 lung was under 10.4 nM; in the assay on PC-3 prostate it was 34.6 nM; in the assay on U251 CNS, under 15.4 nM; with UACC-62 melanoma it was 33.9 nM. Besides, the TGI was determined as 3750 nM with 786-0 renal; 17200 nM with HS 578T breast; 6030 nM in the assay with K-562 leukemia; 1410 nM in the assay with LOX IMVI melanoma; 1580 nM in the assay with M14 melanoma; 2860 nM in the assay with MDA-MB-435. The TGI was determined as 1200 nM in the assay on NCI-H460 lung, 4920 nM in the assay on PC-3 prostate, 3740 nM in the assay on U251 CNS and 550 nM in the assay with UACC-62 melanoma.
On to `CCCCCO/N=C\c1c2c(O)c3c(O)c(C)c4c(c3c1O)C(=O)C(C)(O/C=C\C(OC)C(C)C(OC(C)=O)C(C)C(O)C(C)C(O)C(C)/C=C\C=C(\C)C(=O)N2)O4` (stereo not given), for which the GI50 in the assay with 786-0 renal is 1730 nM; in the assay with HS 578T breast, 1690 nM; with K-562 leukemia it was 3570 nM; in the assay with LOX IMVI melanoma it was 1650 nM; with M14 melanoma it was 1620 nM; in the assay on MDA-MB-435 it was 1810 nM. Moreover, the GI50 with NCI-H460 lung was 1510 nM; in the assay with PC-3 prostate, 1650 nM; in the assay with U251 CNS, 1840 nM; in the assay on UACC-62 melanoma, 1390 nM. For the same molecule, the TGI was 3250 nM in the assay with 786-0 renal; 4200 nM with HS 578T breast; over 100000 nM in the assay with K-562 leukemia; 3010 nM with LOX IMVI melanoma; 3010 nM in the assay on M14 melanoma; 3680 nM in the assay with MDA-MB-435. Besides, the TGI in the assay on NCI-H460 lung came out at 2830 nM; in the assay on PC-3 prostate, 4500 nM; with U251 CNS it was 3540 nM; in the assay on UACC-62 melanoma it was 2710 nM.
Consider `COC1C(O)C(CO)OC(OC2C(O)COC(OC3C(C)OC(OC4C(O[C@H]5CC[C@@]6(C)C(CC=C7[C@H]6CCC68C(=O)O[C@@](C)(CCCC(C)C)[C@H]6[C@@H](OC(C)=O)C[C@@]78C)C5(C)C)OCC(OS(=O)(=O)O)C4O)C(OC4OCC(O)C(O)C4O)C3O)C2O)C1O` (stereo not given in full), for which the GI50 is 134 nM in the assay on 786-0 renal; 245 nM in the assay with HS 578T breast; 92.3 nM with K-562 leukemia; 164 nM in the assay with LOX IMVI melanoma; 258 nM with M14 melanoma; 196 nM in the assay on MDA-MB-435. For the same molecule, the GI50 with NCI-H460 lung was 315 nM; with PC-3 prostate it was 159 nM; with U251 CNS, 120 nM; in the assay with UACC-62 melanoma, 175 nM. Further, the TGI in the assay with 786-0 renal was 349 nM; in the assay on HS 578T breast, 598 nM; in the assay on K-562 leukemia, 242 nM; in the assay with LOX IMVI melanoma, 357 nM; with M14 melanoma, 894 nM; in the assay on MDA-MB-435 it was 532 nM. The TGI in the assay on NCI-H460 lung stood at 1450 nM; in the assay with PC-3 prostate it was 1870 nM; with U251 CNS, 272 nM; in the assay on UACC-62 melanoma, 353 nM.
In the case of `C=CCN1CC(=O)N2[C@@H](Cc3ccc(O)cc3F)C(=O)N(Cc3cccc(N4CC(N5CCN(CC)CC5)C4)n3)C[C@@H]2N1C(=O)NCc1ccccc1`, the GI50 with 786-0 renal is 173 nM; in the assay on HS 578T breast, 27.9 nM; in the assay on K-562 leukemia, 39.7 nM; with LOX IMVI melanoma, 33.9 nM; with M14 melanoma, 44.5 nM; with MDA-MB-435, 102 nM. Also, the GI50 in the assay on NCI-H460 lung was 38 nM; with PC-3 prostate, 35.9 nM; with U251 CNS, 31.9 nM; in the assay on UACC-62 melanoma, 53.9 nM. The TGI in the assay on 786-0 renal was over 100000 nM; in the assay on HS 578T breast, 150 nM; with K-562 leukemia, over 100000 nM; in the assay on LOX IMVI melanoma, 584 nM; in the assay with M14 melanoma it was 19600 nM; in the assay with MDA-MB-435 it was over 100000 nM. The TGI with NCI-H460 lung is over 100000 nM; in the assay with PC-3 prostate, over 100000 nM; in the assay with U251 CNS, over 100000 nM; with UACC-62 melanoma it was 10500 nM.
As to `O=C(O)CCC(=O)c1ccc2sc3ccccc3c2c1`, the TGI in the assay with 786-0 renal, with HS 578T breast, in the assay on K-562 leukemia, in the assay on LOX IMVI melanoma, in the assay on M14 melanoma and in the assay on MDA-MB-435 was over 100000 nM in each case. For the same molecule, the TGI in the assay on NCI-H460 lung, with PC-3 prostate, in the assay with U251 CNS and in the assay on UACC-62 melanoma was over 100000 nM throughout.
As to `N#CCN1CCn2c1nsc2=S`, the GI50 in the assay on 786-0 renal was over 100000 nM; in the assay with HS 578T breast, over 100000 nM; in the assay on K-562 leukemia, 48200 nM; in the assay on LOX IMVI melanoma it was over 100000 nM; in the assay with M14 melanoma, over 100000 nM; with MDA-MB-435, over 100000 nM. Moreover, the GI50 in the assay with NCI-H460 lung, with PC-3 prostate, with U251 CNS and in the assay with UACC-62 melanoma was over 100000 nM throughout. Besides, the TGI in the assay with 786-0 renal, in the assay with HS 578T breast, with K-562 leukemia, with LOX IMVI melanoma, in the assay on M14 melanoma and in the assay on MDA-MB-435 was over 100000 nM throughout. The TGI with NCI-H460 lung, with PC-3 prostate, in the assay on U251 CNS and in the assay on UACC-62 melanoma was over 100000 nM throughout.
